# Source: US20220356174A1, “PYRIDIN-2-ONE COMPOUNDS USEFUL AS SMARCA2 ANTAGONISTS” (Epizyme, Inc., priority 2018, published 2022)
# Read-outs that look alike come from different tables or passages of the source.
# Columns and labels:
# [1] = target: T1, FL-SMARCA2 (full-length human SMARCA2 isoform 1) (Homo sapiens, UniProt P51531); experiment: SMARCA2 ATPase activity assay (ADP-Glo, chicken mononucleosome substrate); format: biochemical; conditions: ATP 250 uM
# T1 construct: FLAG tag (YKDDDDK) (C); made in house; host or cells: Sf21 insect cells (baculovirus, pFastBacI)
# T1 sequence (P51531 with tags, fused parts or gaps): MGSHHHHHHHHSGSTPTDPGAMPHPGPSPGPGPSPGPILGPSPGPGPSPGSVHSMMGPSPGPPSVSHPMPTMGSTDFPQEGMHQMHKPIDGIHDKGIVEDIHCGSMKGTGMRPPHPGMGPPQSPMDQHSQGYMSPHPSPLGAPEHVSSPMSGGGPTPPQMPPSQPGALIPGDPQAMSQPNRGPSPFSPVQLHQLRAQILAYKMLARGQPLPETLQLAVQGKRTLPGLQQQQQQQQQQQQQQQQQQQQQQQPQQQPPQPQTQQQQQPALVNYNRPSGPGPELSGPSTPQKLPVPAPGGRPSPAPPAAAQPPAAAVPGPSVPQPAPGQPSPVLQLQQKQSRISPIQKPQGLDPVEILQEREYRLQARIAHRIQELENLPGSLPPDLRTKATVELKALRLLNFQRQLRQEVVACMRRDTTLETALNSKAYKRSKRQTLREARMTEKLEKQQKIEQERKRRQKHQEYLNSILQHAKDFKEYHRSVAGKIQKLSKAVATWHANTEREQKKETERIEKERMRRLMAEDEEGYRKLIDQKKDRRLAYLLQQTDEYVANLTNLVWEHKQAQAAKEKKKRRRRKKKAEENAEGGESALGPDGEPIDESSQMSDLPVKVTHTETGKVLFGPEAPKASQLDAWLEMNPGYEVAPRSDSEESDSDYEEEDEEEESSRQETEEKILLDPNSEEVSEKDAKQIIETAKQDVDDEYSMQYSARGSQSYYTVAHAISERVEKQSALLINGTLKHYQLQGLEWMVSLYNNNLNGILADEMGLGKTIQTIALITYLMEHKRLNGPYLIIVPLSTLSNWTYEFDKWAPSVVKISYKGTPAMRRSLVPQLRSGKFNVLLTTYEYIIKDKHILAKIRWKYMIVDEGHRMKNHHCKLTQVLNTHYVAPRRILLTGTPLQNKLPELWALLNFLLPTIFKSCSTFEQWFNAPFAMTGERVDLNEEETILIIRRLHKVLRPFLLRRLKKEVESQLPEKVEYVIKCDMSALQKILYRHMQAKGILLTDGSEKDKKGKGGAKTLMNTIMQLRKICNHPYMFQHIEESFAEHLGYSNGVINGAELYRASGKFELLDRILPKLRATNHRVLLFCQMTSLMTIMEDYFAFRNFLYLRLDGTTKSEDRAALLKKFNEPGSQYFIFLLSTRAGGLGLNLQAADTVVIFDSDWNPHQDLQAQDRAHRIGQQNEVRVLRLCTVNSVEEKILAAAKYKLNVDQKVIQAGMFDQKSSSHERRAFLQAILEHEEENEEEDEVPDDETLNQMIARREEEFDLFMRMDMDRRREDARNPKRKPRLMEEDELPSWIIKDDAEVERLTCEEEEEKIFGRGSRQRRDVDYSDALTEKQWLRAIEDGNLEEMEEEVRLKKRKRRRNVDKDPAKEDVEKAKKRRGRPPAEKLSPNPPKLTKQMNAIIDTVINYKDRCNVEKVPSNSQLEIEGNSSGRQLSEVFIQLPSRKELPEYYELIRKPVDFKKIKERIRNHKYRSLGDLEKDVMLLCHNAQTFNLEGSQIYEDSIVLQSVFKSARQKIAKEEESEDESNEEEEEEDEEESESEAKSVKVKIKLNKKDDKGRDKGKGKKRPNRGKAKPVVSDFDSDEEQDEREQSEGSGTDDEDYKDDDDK
# FL-SMARCA4 = FL-SMARCA4 (Homo sapiens, UniProt P51532); experiment: SMARCA4 ATPase activity assay (ADP-Glo, chicken mononucleosome substrate)
# Chain of FL-SMARCA4 (P51532 whole entry): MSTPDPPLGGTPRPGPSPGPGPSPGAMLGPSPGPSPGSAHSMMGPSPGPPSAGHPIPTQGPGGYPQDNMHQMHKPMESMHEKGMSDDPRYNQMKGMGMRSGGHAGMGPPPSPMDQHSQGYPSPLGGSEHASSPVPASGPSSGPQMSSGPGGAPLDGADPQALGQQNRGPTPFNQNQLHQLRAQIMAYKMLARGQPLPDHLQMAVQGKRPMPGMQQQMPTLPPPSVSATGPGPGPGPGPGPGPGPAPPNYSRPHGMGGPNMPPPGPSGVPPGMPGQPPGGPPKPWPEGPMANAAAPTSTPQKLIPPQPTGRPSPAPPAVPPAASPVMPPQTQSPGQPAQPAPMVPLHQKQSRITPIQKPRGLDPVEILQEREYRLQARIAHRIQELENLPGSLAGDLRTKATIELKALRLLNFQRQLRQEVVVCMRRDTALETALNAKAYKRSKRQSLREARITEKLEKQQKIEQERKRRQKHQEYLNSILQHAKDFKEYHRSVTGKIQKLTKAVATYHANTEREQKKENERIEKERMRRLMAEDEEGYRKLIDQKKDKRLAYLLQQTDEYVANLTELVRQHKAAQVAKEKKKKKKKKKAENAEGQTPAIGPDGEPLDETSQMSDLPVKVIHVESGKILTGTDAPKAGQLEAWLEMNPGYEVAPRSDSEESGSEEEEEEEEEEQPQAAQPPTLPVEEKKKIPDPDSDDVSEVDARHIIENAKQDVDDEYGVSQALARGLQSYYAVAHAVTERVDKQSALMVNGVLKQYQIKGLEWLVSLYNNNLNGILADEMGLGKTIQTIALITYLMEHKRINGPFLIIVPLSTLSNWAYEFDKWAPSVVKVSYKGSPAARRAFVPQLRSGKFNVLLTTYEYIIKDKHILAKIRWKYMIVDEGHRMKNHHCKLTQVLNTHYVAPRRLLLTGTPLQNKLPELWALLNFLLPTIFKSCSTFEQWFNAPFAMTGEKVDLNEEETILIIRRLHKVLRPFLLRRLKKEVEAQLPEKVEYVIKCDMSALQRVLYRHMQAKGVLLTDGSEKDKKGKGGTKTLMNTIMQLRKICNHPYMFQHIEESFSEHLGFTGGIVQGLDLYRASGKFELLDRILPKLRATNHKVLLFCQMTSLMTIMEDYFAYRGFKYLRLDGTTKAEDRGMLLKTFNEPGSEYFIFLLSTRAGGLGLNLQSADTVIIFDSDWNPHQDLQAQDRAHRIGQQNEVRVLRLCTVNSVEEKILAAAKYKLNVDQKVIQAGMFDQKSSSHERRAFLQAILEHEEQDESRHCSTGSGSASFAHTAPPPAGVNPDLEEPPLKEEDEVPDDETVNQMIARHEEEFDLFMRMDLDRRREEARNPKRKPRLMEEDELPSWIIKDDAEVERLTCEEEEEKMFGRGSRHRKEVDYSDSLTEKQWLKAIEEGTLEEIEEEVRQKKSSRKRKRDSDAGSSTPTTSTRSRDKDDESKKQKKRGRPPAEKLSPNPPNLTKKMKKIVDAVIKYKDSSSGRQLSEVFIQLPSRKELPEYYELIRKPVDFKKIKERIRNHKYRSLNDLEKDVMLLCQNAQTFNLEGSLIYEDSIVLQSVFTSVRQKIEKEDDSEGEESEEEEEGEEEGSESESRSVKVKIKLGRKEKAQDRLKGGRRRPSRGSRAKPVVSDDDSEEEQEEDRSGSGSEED
# [2] = Table 3c.1, ATPase assay, enzyme 5 nM, chicken mononucleosome 10 nM, 30 min preincubation
# [3] = FL-SMARCA4 IC>50, Table 3c.2, ATPase assay, enzyme 5 nM, ATP 250 uM, chicken mononucleosome 10 nM, 30 min preincubation
# [4] = Table 3.1, ATPase assay, enzyme 5 nM, chicken mononucleosome 10 nM, 30 min preincubation
# [5] = FL-SMARCA4 IC50, Table 3.2, ATPase assay, enzyme 5 nM, ATP 250 uM, chicken mononucleosome 10 nM, 30 min preincubation
# [6] = Table 3a.1, SMARCA2 5 nM, mononucleosome 10 nM
# [7] = FL-SMARCA4 IC50, Table 3a.2, SMARCA4 5 nM, ATP 250 uM, mononucleosome 10 nM
# [8] = Table 3d.1, ATPase assay, enzyme 5 nM, chicken mononucleosome 10 nM, 30 min preincubation, read-out: FL-SMARCA2 IC>50
structure (smiles),measurement,setting,value
O=C(Nc1cc(F)c(=O)n(CC(F)F)c1)c1cc(C#Cc2cccc(CO)c2)c(Cl)s1 [Compound 138c],IC50,[1]; [2],0.0288 µM
same,IC50,FL-SMARCA4; [3],0.0657 µM
CN(C)C(=O)c1cc(C(=O)Nc2cc(F)c(=O)n(CCF)c2)sc1Cl [Compound 299],IC50,[1]; [4],> 50 µM
same,IC50,FL-SMARCA4; [5],> 50 µM
Cn1cc(NC(=O)c2cc(Cl)cs2)cc(Br)c1=O [Compound 8],IC50,[1]; [4],> 50 µM
same,IC50,FL-SMARCA4; [5],> 50 µM
O=C(Nc1cc(F)c(=O)n(CC(F)F)c1)c1cc(C2COC2)cs1 [Compound 36c],IC50,[1]; [2],> 50 µM
same,IC50,FL-SMARCA4; [3],> 50 µM
CCn1cc(NC(=O)c2ccc3c(c2)OCO3)ccc1=O [Compound 15a],IC50,[1]; [6],> 50 µM
same,IC50,FL-SMARCA4; [7],> 50 µM
CCn1cc(NC(=O)c2cc(Cl)c(Cl)s2)cc(F)c1=O [Compound 109],IC50,[1]; [4],0.173 µM
same,IC50,FL-SMARCA4; [5],0.559 µM
CCn1cc(NC(=O)c2cc(Cl)n[nH]2)ccc1=O [Compound 94],IC50,[1]; [4],3.15 µM
same,IC50,FL-SMARCA4; [5],11.5 µM
CCn1cc(NC(=O)c2ccc3ccccc3n2)ccc1=O [Compound 26a],IC50,[1]; [6],> 50 µM
same,IC50,FL-SMARCA4; [7],> 50 µM
CCc1cc(NC(=O)c2cc(Cl)c(Cl)s2)cn(CC)c1=O [Compound 117],IC50,[1]; [4],> 50 µM
same,IC50,FL-SMARCA4; [5],> 50 µM
CCn1cc(NC(=O)c2nc(Cl)cs2)ccc1=O [Compound 63],IC50,[1]; [4],> 50 µM
same,IC50,FL-SMARCA4; [5],> 50 µM
CCn1cc(NC(=O)c2nc(Br)sc2C)ccc1=O [Compound 36],IC50,[1]; [4],> 50 µM
same,IC50,FL-SMARCA4; [5],> 50 µM
O=C(Nc1cc(F)c(=O)n(CCF)c1)c1cnc(-n2ccnc2)s1 [Compound 271],IC50,[1]; [4],> 50 µM
same,IC50,FL-SMARCA4; [5],> 50 µM
Cc1nc(-c2cc(C(=O)Nc3ccc(=O)n(C)c3)n(C)c2)cs1 [Compound 7],IC50,[1]; [4],> 50 µM
same,IC50,FL-SMARCA4; [5],> 50 µM
O=C(Nc1cc(F)c(=O)n(CC(F)F)c1)c1n[nH]c(Cl)n1 [Compound 38d],IC50,[1]; [8],> 50 µM
same,IC50,FL-SMARCA4; FL-SMARCA4 IC50,> 50 µM
CCn1cc(NC(=O)c2cc(C#N)c(Cl)s2)ccc1=O [Compound 106],IC50,[1]; [4],0.417 µM
same,IC50,FL-SMARCA4; [5],0.838 µM
O=C(Nc1cc(NCC2CCCN2)c(=O)n(CCF)c1)c1cc(Cl)c(Cl)s1 (centres unmarked) [Compound 268],IC50,[1]; [4],16.7 µM
same,IC50,FL-SMARCA4; [5],41.8 µM
O=C(Nc1ccc(=O)n(CC(F)(F)F)c1)c1nc2cc(F)c(Cl)cc2[nH]1 [Compound 41a],IC50,[1]; [6],> 50 µM
same,IC50,FL-SMARCA4; [7],> 50 µM
COc1ccc2nc(C(=O)Nc3cc(F)c(=O)n(CCF)c3)sc2c1 [Compound 62a],IC50,[1]; [6],44 µM
same,IC50,FL-SMARCA4; [7],48.2 µM
CCn1cc(NC(=O)c2cnc3ncccn23)ccc1=O [Compound 23a],IC50,[1]; [6],> 50 µM
same,IC50,FL-SMARCA4; [7],> 50 µM
O=C(Nc1ccc(=O)n(CC(F)F)c1)c1cc(Cl)c(Cl)s1 [Compound 81],IC50,[1]; [4],0.223 µM
same,IC50,FL-SMARCA4; [5],0.723 µM
CNCCn1cc(NC(=O)c2cc(Cl)c(Cl)n2C)ccc1=O [Compound 71],IC50,[1]; [4],> 50 µM
same,IC50,FL-SMARCA4; [5],> 50 µM
CCn1cc(NC(=O)c2cc(Cl)c(Cl)s2)cc(C)c1=O [Compound 105],IC50,[1]; [4],27.8 µM
same,IC50,FL-SMARCA4; [5],> 50 µM
N#Cc1cc(C(=O)Nc2ccc(=O)n(CCF)c2)sc1Cl [Compound 187],IC50,[1]; [4],0.158 µM
same,IC50,FL-SMARCA4; [5],0.616 µM
N#Cc1cc(C(=O)Nc2ccc(=O)n(CC(F)(F)F)c2)sc1Cl [Compound 197],IC50,[1]; [4],0.281 µM
same,IC50,FL-SMARCA4; [5],0.831 µM
CCn1cc(NC(=O)c2ccc(Br)n2C)ccc1=O [Compound 19],IC50,[1]; [4],> 50 µM
same,IC50,FL-SMARCA4; [5],> 50 µM
O=C(Nc1cc(F)c(=O)n(CCF)c1)c1cc(Cl)n[nH]1 [Compound 155],IC50,[1]; [4],0.163 µM
same,IC50,FL-SMARCA4; [5],0.529 µM
O=C(Nc1cc(-c2ncco2)c(=O)n(CC(F)F)c1)c1cc(Cl)c(C(F)(F)F)s1 [Compound 102c],IC50,[1]; [2],> 50 µM
same,IC50,FL-SMARCA4; [3],> 50 µM
NS(=O)(=O)c1ccc(C(=O)Nc2cc(F)c(=O)n(CCF)c2)cc1Cl [Compound 23b],IC50,"[1]; Table 3b.1, SMARCA2 5 nM, mononucleosome 10 nM",> 50 µM
same,IC50,"FL-SMARCA4; FL-SMARCA4 IC50, Table 3b.2, SMARCA4 5 nM, ATP 250 uM, mononucleosome 10 nM",> 50 µM
O=C(Nc1cc(-c2c[nH]cn2)c(=O)n(CC(F)F)c1)c1sc(C(F)(F)F)cc1Cl [Compound 31c],IC50,[1]; [2],> 50 µM
same,IC50,FL-SMARCA4; [3],> 50 µM
CC(C)COc1ncccc1C(=O)Nc1cc(Cl)c(=O)n(C)c1 [Compound 2a],IC50,[1]; [6],> 50 µM
same,IC50,FL-SMARCA4; [7],> 50 µM
COc1ncc(C(=O)Nc2cc(F)c(=O)n(CC(F)F)c2)cc1F [Compound 42d],IC50,[1]; [8],27.6 µM
same,IC50,FL-SMARCA4; FL-SMARCA4 IC50,> 50 µM
N#Cc1cc(C(=O)Nc2ccc(=O)n(CC(F)(F)F)c2)sc1C#N [Compound 198],IC50,[1]; [4],0.107 µM
same,IC50,FL-SMARCA4; [5],0.283 µM
COCc1cc(NC(=O)c2cc(F)c(Cl)s2)cn(CC(F)F)c1=O [Compound 3c],IC50,[1]; [2],40 µM
same,IC50,FL-SMARCA4; [3],> 50 µM
O=C(Nc1cc(F)c(=O)n(CCF)c1)c1cnc(Cl)o1 [Compound 253],IC50,[1]; [4],> 50 µM
same,IC50,FL-SMARCA4; [5],> 50 µM
